Literature values in patent US20220347150A1, “TASIMELTEON USE IN TREATING SLEEP ABERRATIONS” (Vanda Pharmaceuticals Inc., priority 2019, published 2022).

Legend:
[1] = subjects with a 5-hour advance in sleep-wake cycle; treatment relative to placebo; reported in US 20090105333A1 (WO2007/137244)
[2] = preclinical models of acute phase-shifting and chronic re-entrainment

CCC(=O)NC[C@@H]1C[C@H]1c1cccc2c1CCO2 [tasimelteon, Tasimelteon]
shifting dim light melatonin onset [1]: positive outcomes | sleep efficacy [1]: positive outcomes | chronobiotic activity [2]: potent chronobiotic activity
